Some test systems named below: OVCAR-4 ovarian; OVCAR-8 ovarian; SK-MEL-5 melanoma; SR leukemia; SF-539 CNS; NCI-H522 lung; COLO 205 colon; SW-620 colon; SNB-75 CNS; NCI-H460 lung.
Experiment in all cases: NCI tumour cell line growth inhibition, 48 h

The source of these data is PubChem BioAssay (NCI).

Where “and” joins values, the source holds several entries; their conditions need not be identical. Equal values may be shown once.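 Where inhibition never reached the appropriate level, the endpoint shown equals the highest concentration tested. Otherwise, values were interpolated linearly from a five-concentration, 48-hour dose response in 96-well plates. GI50 = concentration required for 50% inhibition of growth. The concentration for full growth arrest is given as TGI.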 Some results are limits rather than exact numbers.

Consider `Cn1ncc(-c2ccc3c(=O)[nH]nc(CN)c3c2)c1-c1c(F)c(Cl)cc(OC2CC2)c1C#N`, for which the GI50 in the assay on OVCAR-4 ovarian is 14.5 µM and 12.6 µM; in the assay with OVCAR-8 ovarian it was 13.9 µM and 13.7 µM; with SK-MEL-5 melanoma, 12 µM and 14.3 µM; with SR leukemia, 13.1 µM and 12.3 µM; in the assay on SF-539 CNS, 14.4 µM and 13.1 µM; with NCI-H522 lung, 12.7 µM and 9.22 µM. Moreover, the GI50 in the assay with COLO 205 colon was 11.8 µM and 10.9 µM; in the assay on SW-620 colon, 13.8 µM and 12.6 µM; in the assay with SNB-75 CNS, 11.1 µM and 5.4 µM; in the assay with NCI-H460 lung, 13.6 µM and 12.4 µM. For the same compound, the TGI with OVCAR-4 ovarian was 29.1 µM and 26.2 µM; in the assay on OVCAR-8 ovarian, 27.4 µM and 27.1 µM; in the assay with SK-MEL-5 melanoma, 24.4 µM and 27.5 µM; with SR leukemia, 34.8 µM and 41 µM; in the assay with SF-539 CNS it was 28 µM and 26.7 µM; in the assay on NCI-H522 lung it was 27.4 µM and 23.1 µM. In addition, the TGI is 26.9 µM and 25.1 µM in the assay with COLO 205 colon; 29.4 µM and 27.3 µM in the assay with SW-620 colon; 23.7 µM and 20.7 µM in the assay on SNB-75 CNS; 28.8 µM and 26.7 µM in the assay on NCI-H460 lung.
`CC1=C2C(=C[C@@](C)(CO)[C@@H]2OC(=O)N(C)CCN(C)C(=O)OC(C)(C)C)C(=O)[C@](C)(O)C12CC2`: the GI50 in the assay with OVCAR-4 ovarian was 4.68 µM; in the assay on OVCAR-8 ovarian, 6.51 µM; in the assay with SK-MEL-5 melanoma, 8.84 µM; with SR leukemia, 2.39 µM; in the assay on SF-539 CNS it was 7.92 µM; in the assay with NCI-H522 lung, 6.27 µM. For the same compound, the GI50 was 5.27 µM in the assay with COLO 205 colon, 12.8 µM in the assay with SW-620 colon, 5.29 µM with SNB-75 CNS and 1.45 µM in the assay on NCI-H460 lung. The TGI is 22.6 µM in the assay with OVCAR-4 ovarian; 45.7 µM in the assay with OVCAR-8 ovarian; 16.4 µM in the assay on SK-MEL-5 melanoma; above 50 µM in the assay on SR leukemia; 21.2 µM in the assay with SF-539 CNS; 25.2 µM in the assay on NCI-H522 lung. Moreover, the TGI was 14.3 µM in the assay with COLO 205 colon, above 50 µM in the assay on SW-620 colon, 11.8 µM with SNB-75 CNS and 5.42 µM in the assay on NCI-H460 lung.
`CNC(=S)Nc1ccc(OC)c2ccccc12`: the TGI in the assay on OVCAR-4 ovarian, with OVCAR-8 ovarian, in the assay on SK-MEL-5 melanoma, in the assay with SR leukemia, with SF-539 CNS and in the assay with NCI-H522 lung was above 10 µM each time. Further, the TGI in the assay on COLO 205 colon, in the assay with SW-620 colon and in the assay with SNB-75 CNS was above 10 µM in each case.
As to `O=C1OCC2=C1C(c1cccc(F)c1)c1cc3c(cc1N2CCO)OCO3` (configuration not stated), the GI50 with OVCAR-4 ovarian is 46.8 µM; in the assay with OVCAR-8 ovarian, 3.18 µM; with SK-MEL-5 melanoma it was 1.26 µM; in the assay on SR leukemia, 0.294 µM; in the assay on SF-539 CNS, 1.13 µM; in the assay with NCI-H522 lung, 0.259 µM. Moreover, the GI50 was 1.48 µM in the assay with COLO 205 colon, 1.65 µM with SW-620 colon, 0.82 µM in the assay on SNB-75 CNS and 2.08 µM in the assay on NCI-H460 lung. In addition, the TGI with OVCAR-4 ovarian is above 50 µM; in the assay on OVCAR-8 ovarian it was above 50 µM; with SK-MEL-5 melanoma, above 50 µM; in the assay with SR leukemia, above 50 µM; with SF-539 CNS it was 3.61 µM; in the assay with NCI-H522 lung, 29 µM. Further, the TGI in the assay on COLO 205 colon was 15.1 µM; in the assay on SW-620 colon it was above 50 µM; in the assay with SNB-75 CNS it was 2.8 µM; in the assay with NCI-H460 lung it was above 50 µM.
Consider `CCN1C(=O)N(CC)C2C1NN=c1s/c(=C\c3ccc(Cl)cc3Cl)c(=O)n12` (configuration not stated), for which the GI50 was 0.0792 µM in the assay with OVCAR-4 ovarian; 0.0368 µM with OVCAR-8 ovarian; 0.0247 µM in the assay on SK-MEL-5 melanoma; 0.0319 µM in the assay on SR leukemia; 0.0241 µM in the assay with SF-539 CNS; 0.0216 µM in the assay on NCI-H522 lung. The GI50 in the assay on COLO 205 colon is 0.0263 µM; in the assay on SW-620 colon, 0.0439 µM; in the assay on SNB-75 CNS it was 0.0258 µM; in the assay with NCI-H460 lung, 0.0347 µM. Moreover, the TGI in the assay on OVCAR-4 ovarian was above 95.9 µM; in the assay with OVCAR-8 ovarian it was 36.6 µM; with SK-MEL-5 melanoma, 0.0763 µM; in the assay on SR leukemia it was above 24.8 µM; in the assay with SF-539 CNS, 0.0698 µM; in the assay on NCI-H522 lung it was 0.219 µM. Moreover, the TGI in the assay with COLO 205 colon is 0.0748 µM; in the assay with SW-620 colon, above 100 µM; in the assay on SNB-75 CNS it was 0.971 µM; in the assay with NCI-H460 lung it was 15.8 µM.
As to `c1ccc(NN(Cc2cnccn2)c2ccccc2)cc1`, the TGI in the assay with OVCAR-4 ovarian, with OVCAR-8 ovarian, with SK-MEL-5 melanoma, in the assay on SR leukemia, in the assay with SF-539 CNS and with NCI-H522 lung was above 100 µM each time. For the same compound, the TGI in the assay with COLO 205 colon, with SW-620 colon, in the assay on SNB-75 CNS and in the assay with NCI-H460 lung was above 100 µM in each case.
With `O=c1cc(-c2cccs2)[nH]c2cc3c(cc12)OCO3`, the TGI was above 22.2 µM in the assay with OVCAR-4 ovarian; 27.7 µM with OVCAR-8 ovarian; above 31.9 µM in the assay with SK-MEL-5 melanoma; above 100 µM in the assay with SR leukemia; 12.7 µM in the assay with SF-539 CNS; 6.92 µM with NCI-H522 lung. For the same compound, the TGI with COLO 205 colon is above 100 µM; in the assay with SW-620 colon, above 100 µM; in the assay on SNB-75 CNS, 6.63 µM; in the assay on NCI-H460 lung it was above 39.1 µM.
With `CO/N=C(\COc1ccc2c(c1)[nH]c1ccccc12)c1ccc(OC)cc1`, the GI50 in the assay on OVCAR-4 ovarian is 10.5 µM; in the assay with OVCAR-8 ovarian, 5.84 µM; in the assay on SK-MEL-5 melanoma, 15.7 µM; in the assay on SR leukemia it was 71.6 µM; with SF-539 CNS, 13.8 µM; in the assay with NCI-H522 lung it was 49.1 µM. Also, the GI50 with COLO 205 colon is 92.3 µM; in the assay with SW-620 colon it was above 100 µM; in the assay on SNB-75 CNS, 6.66 µM; in the assay with NCI-H460 lung it was 21.8 µM. Also, the TGI is above 100 µM in the assay with OVCAR-4 ovarian; 27.5 µM in the assay with OVCAR-8 ovarian; above 100 µM with SK-MEL-5 melanoma; above 100 µM with SR leukemia; above 100 µM with SF-539 CNS; above 100 µM with NCI-H522 lung. The TGI in the assay with COLO 205 colon, in the assay on SW-620 colon, in the assay on SNB-75 CNS and with NCI-H460 lung was above 100 µM throughout.
`CCSC1=NC2C(N(CC)C(=O)N2CC)N1/N=C/C=C/c1ccccc1[N+](=O)[O-]` (configuration not stated): the GI50 is 0.28 µM in the assay on OVCAR-4 ovarian; 0.385 µM in the assay on OVCAR-8 ovarian; 0.112 µM in the assay on SK-MEL-5 melanoma; 0.0895 µM in the assay with SR leukemia; 0.0804 µM in the assay on SF-539 CNS; 0.0395 µM in the assay with NCI-H522 lung. Also, the GI50 in the assay on SW-620 colon is 0.186 µM; in the assay on SNB-75 CNS it was 0.0528 µM; with NCI-H460 lung it was 0.228 µM. In addition, the TGI in the assay on OVCAR-4 ovarian is above 100 µM; in the assay on OVCAR-8 ovarian it was above 100 µM; in the assay with SK-MEL-5 melanoma it was 0.538 µM; with SR leukemia it was above 48 µM; in the assay with SF-539 CNS, 0.736 µM; in the assay with NCI-H522 lung, 46.2 µM. The TGI was above 100 µM in the assay on SW-620 colon, above 100 µM in the assay on SNB-75 CNS and 12.2 µM in the assay with NCI-H460 lung.
